Laboratory results taken from US20250305981A1, “SWITCHING PEPTIDE AND IMMUNOASSAY USING SAME” (OPTOLANE TECHNOLOGIES INC., priority 2021, published 2025).

Columns and labels:
[1] = target: anti-HRP antibody from a rabbit; experiment: One-step immunoassay with fluorescently labeled peptides, varying HRP antigen concentration (FIG. 7); format: binding; conditions: estimated; HRP antigen 0.3 to 100 μM, fluorescence in solution; read-out: Equilibrium dissociation constant
Text: FIG. 7A is a schematic diagram for explaining an immunoassay method using fluorescently labeled peptide compounds of Example 1, and FIGS. 7B and 7C are graphs illustrating the fluorescence intensities in a solution and at a bottom of the microplate depending on a concentration of the antigen measured by the immunoassay method illustrated in FIG. 7A. In this experiment, an anti-HRP antibody from a rabbit immobilized on a microplate was used as the binding antibody and HRP was used as the antigen.
Referring to FIGS. 7A to 7C, as a result of performing immunoassay while varying the concentration of antigen HRP from 0.3 to 100 μM, for the four types of switching peptides (H1, H2, L1, L2), an increase in the fluorescence intensity in the solution was observed depending on the concentration of the antigen (HRP).
Equilibrium dissociation constants of the H1, H2, L1, and L2 peptides were estimated to be 1.65, 3.11, 3.29, and 1.48 μM, and the difference in the dissociation constant for each switching peptide means that each switching peptide has a different detection area for each antigen.

L2 peptide = experiment: FRET test of specific interaction between H1 and L2 peptides on microplate; format: binding; conditions: TAMRA-H1 and FAM-L2, concentration of H1 peptide varied
Text: (§1) Here, at the ends of the L1 and L2 peptides, a first fluorescent label, FAM (λex=488 nm, λem=532 nm) was modified, and at the ends of the H1 and H2 peptides, a second fluorescent label, TAMRA (λex=532 nm, λem=570 nm) was modified.

[2] = system: Fab region of rabbit anti-HRP antibodies; experiment: Papain treatment of immobilized antibody bound to fluorescently labeled switching peptide (FIG. 6B); format: binding; conditions: after vs before papain
Text: In the case of this experiment, after immobilization of the antibodies (rabbit anti-HRP antibodies) on the microplate, binding between the antibody and the switching peptide was induced by treatment with a fluorescently labeled switching peptide, the unbound switching peptide was removed, and then the Fab region was hydrolyzed from the immobilized antibodies by adding papain, which is a protease. Referring to FIG. 6A, the fluorescence at the bottom (B) of the microplate is expected to decrease after the papain reaction because the fluorescently labeled switching peptides are bound to the Fab region of antibodies, and the fluorescence in the solution is expected to increase because the Fab region to which the switching peptide is bound is hydrolyzed and dissolved into the solution. This prediction is proven to be true from the graphs of FIG. 6B.

Anti-CRP antibody(r) = experiment: Fluorescence before/after antigen binding, peptide bound to immobilized antibody (Table 2); design: species or system rabbit; conditions: fluorescently labeled peptide
Anti-HBsAg antibody(g) = experiment: as above; design: species or system goat; conditions: for fluorescence intensity at the bottom of the plate decreased by: after treatment with antigen HBsAg; for Bottom (B) of microplate After antigen binding, fluorescence intensity / Bottom (B) of microplate Before antigen binding, fluorescence intensity / Bottom (B) of microplate Change (%) / In solution (S) After antigen binding, fluorescence intensity / In solution (S) Before antigen binding, fluorescence intensity: antigen HBsAg, fluorescently labeled peptide
Anti-hCG antibody(m) = experiment: as above; design: species or system mouse; conditions: fluorescently labeled peptide
Anti-HRP antibody(r) = experiment: as above; design: species or system rabbit; conditions: fluorescently labeled peptide
[3] = Dynamic laser scattering (DLS) of binding antibody bound to ferrocene-labeled switching peptide (FIG. 8A); format: physicochemical; conditions: compared with antibody bound to L2 or H1 peptide
Procedure: FIG. 8A is a result obtained by performing dynamic laser scattering (DLS) to compare the hydrodynamic radius of the switching peptides of the present disclosure. Referring to FIG. 8A, it can be confirmed that DLS was performed using intensity measurement of scattered light under monochromatic laser light, and a hydrodynamic radius of the binding antibody bound to the L1 or H2 peptide was smaller than that of the bound antibody bound to the L2 or H1 peptide.

H2 peptide = experiment: FRET test of specific interaction between L1 and H2 peptides on microplate; format: binding; conditions: FAM-L1 and TAMRA-H2, concentration of L1 peptide varied
H2 peptide, sequence (as listed by the source): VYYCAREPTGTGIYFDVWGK
Text: as §1
Referring to FIG. 4A, the interaction between the L1 and H2 peptides was observed by changing the concentration of the L1 peptide, and the FRET intensity increased with increasing the concentration of the L1 peptide.

[4] = Diffusion coefficient (Dox) of ferrocene-labeled switching peptides in CV analysis (FIG. 8C); format: physicochemical; conditions: compared with H1 and L2 peptides
Text: FIG. 8C is a graph obtained by measuring a diffusion coefficient (Dox) of the switching peptides of the present disclosure in CV analysis. […] Therefore, L1 and H2 peptides labeled with ferrocene may be optimal probes for electrochemical immunoassay.

SYWIH WVKQR PGQGL EWIGE [H1, homology to FR2 region of the heavy chain]
Kd [1]: 1650 nM | specific interaction (FRET intensity) (L2 peptide): specific interaction | decrease of fluorescence intensity at the bottom of the microplate after papain treatment [2]: 84.3% | increase of fluorescence intensity in the solution after papain treatment [2]: 2,184% | Bottom (B) of microplate After antigen binding, fluorescence intensity (Anti-CRP antibody(r)): 3595 | Bottom (B) of microplate Before antigen binding, fluorescence intensity (Anti-CRP antibody(r)): 4912 | Bottom (B) of microplate Change (%) (Anti-CRP antibody(r)): −26.8% | In solution (S) After antigen binding, fluorescence intensity (Anti-CRP antibody(r)): 5659 | In solution (S) Before antigen binding, fluorescence intensity (Anti-CRP antibody(r)): 2242 | In solution (S) Change (%) (Anti-CRP antibody(r)): +152% | fluorescence intensity at the bottom of the plate decreased by (Anti-HBsAg antibody(g)): 41.1% | Bottom (B) of microplate After antigen binding, fluorescence intensity (Anti-HBsAg antibody(g)): 4618 | Bottom (B) of microplate Before antigen binding, fluorescence intensity (Anti-HBsAg antibody(g)): 11225 | Bottom (B) of microplate Change (%) (Anti-HBsAg antibody(g)): −58.9% | In solution (S) After antigen binding, fluorescence intensity (Anti-HBsAg antibody(g)): 11453 | In solution (S) Before antigen binding, fluorescence intensity (Anti-HBsAg antibody(g)): 2242 | Bottom (B) of microplate After antigen binding, fluorescence intensity (Anti-hCG antibody(m)): 1940 | Bottom (B) of microplate Before antigen binding, fluorescence intensity (Anti-hCG antibody(m)): 5646 | Bottom (B) of microplate Change (%) (Anti-hCG antibody(m)): −65.6% | In solution (S) After antigen binding, fluorescence intensity (Anti-hCG antibody(m)): 3921 | In solution (S) Before antigen binding, fluorescence intensity (Anti-hCG antibody(m)): 1281 | In solution (S) Change (%) (Anti-hCG antibody(m)): +206% | Bottom (B) of microplate After antigen binding, fluorescence intensity (Anti-HRP antibody(r)): 1451 | Bottom (B) of microplate Before antigen binding, fluorescence intensity (Anti-HRP antibody(r)): 11840 | Bottom (B) of microplate Change (%) (Anti-HRP antibody(r)): −87.7% | In solution (S) After antigen binding, fluorescence intensity (Anti-HRP antibody(r)): 21965 | In solution (S) Before antigen binding, fluorescence intensity (Anti-HRP antibody(r)): 2596

TYLEW YPQKP GQSPK LLIYK [L1, homology to FR2 region of the light chain]
Kd [1]: 3290 nM | hydrodynamic radius of the binding antibody bound to the peptide [3]: smaller | specific interaction (FRET intensity) (H2 peptide): specific interaction | decrease of fluorescence intensity at the bottom of the microplate after papain treatment [2]: 84.8% | increase of fluorescence intensity in the solution after papain treatment [2]: 1,032% | Bottom (B) of microplate After antigen binding, fluorescence intensity (Anti-CRP antibody(r)): 3456 | Bottom (B) of microplate Before antigen binding, fluorescence intensity (Anti-CRP antibody(r)): 6719 | Bottom (B) of microplate Change (%) (Anti-CRP antibody(r)): −48.6% | In solution (S) After antigen binding, fluorescence intensity (Anti-CRP antibody(r)): 6505 | In solution (S) Before antigen binding, fluorescence intensity (Anti-CRP antibody(r)): 741 | In solution (S) Change (%) (Anti-CRP antibody(r)): +778% | fluorescence intensity at the bottom of the plate decreased by (Anti-HBsAg antibody(g)): 48.7% | Bottom (B) of microplate After antigen binding, fluorescence intensity (Anti-HBsAg antibody(g)): 5388 | Bottom (B) of microplate Before antigen binding, fluorescence intensity (Anti-HBsAg antibody(g)): 11062 | Bottom (B) of microplate Change (%) (Anti-HBsAg antibody(g)): −51.3% | In solution (S) After antigen binding, fluorescence intensity (Anti-HBsAg antibody(g)): 20501 | In solution (S) Before antigen binding, fluorescence intensity (Anti-HBsAg antibody(g)): 2779 | diffusion coefficient (Dox) [4]: relatively higher | Bottom (B) of microplate After antigen binding, fluorescence intensity (Anti-hCG antibody(m)): 1777 | Bottom (B) of microplate Before antigen binding, fluorescence intensity (Anti-hCG antibody(m)): 4630 | Bottom (B) of microplate Change (%) (Anti-hCG antibody(m)): −61.6% | In solution (S) After antigen binding, fluorescence intensity (Anti-hCG antibody(m)): 3580 | In solution (S) Before antigen binding, fluorescence intensity (Anti-hCG antibody(m)): 1248 | In solution (S) Change (%) (Anti-hCG antibody(m)): +187% | Bottom (B) of microplate After antigen binding, fluorescence intensity (Anti-HRP antibody(r)): 1990 | Bottom (B) of microplate Before antigen binding, fluorescence intensity (Anti-HRP antibody(r)): 15608 | Bottom (B) of microplate Change (%) (Anti-HRP antibody(r)): −87.3% | In solution (S) After antigen binding, fluorescence intensity (Anti-HRP antibody(r)): 12280 | In solution (S) Before antigen binding, fluorescence intensity (Anti-HRP antibody(r)): 2687

VYYCA REPTG TGIYF DVWGK [H2, homology to FR3 or FR4 region of the heavy chain]
Kd [1]: 3110 nM | hydrodynamic radius of the binding antibody bound to the peptide [3]: smaller | decrease of fluorescence intensity at the bottom of the microplate after papain treatment [2]: 58.7% | increase of fluorescence intensity in the solution after papain treatment [2]: 2,356% | Bottom (B) of microplate After antigen binding, fluorescence intensity (Anti-CRP antibody(r)): 22205 | Bottom (B) of microplate Before antigen binding, fluorescence intensity (Anti-CRP antibody(r)): 22205 | Bottom (B) of microplate Change (%) (Anti-CRP antibody(r)): −39.5% | In solution (S) After antigen binding, fluorescence intensity (Anti-CRP antibody(r)): 16311 | In solution (S) Before antigen binding, fluorescence intensity (Anti-CRP antibody(r)): 2099 | In solution (S) Change (%) (Anti-CRP antibody(r)): +677% | fluorescence intensity at the bottom of the plate decreased by (Anti-HBsAg antibody(g)): 63.9% | Bottom (B) of microplate After antigen binding, fluorescence intensity (Anti-HBsAg antibody(g)): 18773 | Bottom (B) of microplate Before antigen binding, fluorescence intensity (Anti-HBsAg antibody(g)): 29367 | Bottom (B) of microplate Change (%) (Anti-HBsAg antibody(g)): −36.1% | In solution (S) After antigen binding, fluorescence intensity (Anti-HBsAg antibody(g)): 9136 | In solution (S) Before antigen binding, fluorescence intensity (Anti-HBsAg antibody(g)): 1784 | diffusion coefficient (Dox) [4]: relatively higher | Bottom (B) of microplate After antigen binding, fluorescence intensity (Anti-hCG antibody(m)): 23320 | Bottom (B) of microplate Before antigen binding, fluorescence intensity (Anti-hCG antibody(m)): 23320 | Bottom (B) of microplate Change (%) (Anti-hCG antibody(m)): −88.5% | In solution (S) After antigen binding, fluorescence intensity (Anti-hCG antibody(m)): 8545 | In solution (S) Before antigen binding, fluorescence intensity (Anti-hCG antibody(m)): 1654 | In solution (S) Change (%) (Anti-hCG antibody(m)): +416% | Bottom (B) of microplate After antigen binding, fluorescence intensity (Anti-HRP antibody(r)): 1806 | Bottom (B) of microplate Before antigen binding, fluorescence intensity (Anti-HRP antibody(r)): 122230 | Bottom (B) of microplate Change (%) (Anti-HRP antibody(r)): −85.2% | In solution (S) After antigen binding, fluorescence intensity (Anti-HRP antibody(r)): 18128 | In solution (S) Before antigen binding, fluorescence intensity (Anti-HRP antibody(r)): 2272

VYYCF QGSHV PFTK [L2, homology to FR3 or FR4 region of the light chain]
Kd [1]: 1480 nM | decrease of fluorescence intensity at the bottom of the microplate after papain treatment [2]: 72.5% | increase of fluorescence intensity in the solution after papain treatment [2]: 2,452% | Bottom (B) of microplate After antigen binding, fluorescence intensity (Anti-CRP antibody(r)): 11236 | Bottom (B) of microplate Before antigen binding, fluorescence intensity (Anti-CRP antibody(r)): 20394 | Bottom (B) of microplate Change (%) (Anti-CRP antibody(r)): −44.9% | In solution (S) After antigen binding, fluorescence intensity (Anti-CRP antibody(r)): 32187 | In solution (S) Before antigen binding, fluorescence intensity (Anti-CRP antibody(r)): 3274 | In solution (S) Change (%) (Anti-CRP antibody(r)): +883% | fluorescence intensity at the bottom of the plate decreased by (Anti-HBsAg antibody(g)): 35.2% | Bottom (B) of microplate After antigen binding, fluorescence intensity (Anti-HBsAg antibody(g)): 9856 | Bottom (B) of microplate Before antigen binding, fluorescence intensity (Anti-HBsAg antibody(g)): 28002 | Bottom (B) of microplate Change (%) (Anti-HBsAg antibody(g)): −64.8% | In solution (S) After antigen binding, fluorescence intensity (Anti-HBsAg antibody(g)): 15359 | In solution (S) Before antigen binding, fluorescence intensity (Anti-HBsAg antibody(g)): 2279 | Bottom (B) of microplate After antigen binding, fluorescence intensity (Anti-hCG antibody(m)): 3072 | Bottom (B) of microplate Before antigen binding, fluorescence intensity (Anti-hCG antibody(m)): 33156 | Bottom (B) of microplate Change (%) (Anti-hCG antibody(m)): −90.7% | In solution (S) After antigen binding, fluorescence intensity (Anti-hCG antibody(m)): 9402 | In solution (S) Before antigen binding, fluorescence intensity (Anti-hCG antibody(m)): 1692 | In solution (S) Change (%) (Anti-hCG antibody(m)): +456% | Bottom (B) of microplate After antigen binding, fluorescence intensity (Anti-HRP antibody(r)): 3208 | Bottom (B) of microplate Before antigen binding, fluorescence intensity (Anti-HRP antibody(r)): 12584 | Bottom (B) of microplate Change (%) (Anti-HRP antibody(r)): −74.5% | In solution (S) After antigen binding, fluorescence intensity (Anti-HRP antibody(r)): 16135 | In solution (S) Before antigen binding, fluorescence intensity (Anti-HRP antibody(r)): 2315
